Measured values published in PMC10328120 (Nature, 2022).
Like-named read-outs stand apart in the source and are kept apart here.

What was measured:
μOR [1] = target: T1, μOR (Homo sapiens, UniProt P35372); test: cell-based; assay type: cell-based
μOR [2] = target: T1, μOR; test: cell-based; assay type: cell-based; conditions: for Emax: read-out: β-arr1 Emax % ± SEM
μOR [3] = target: T1, μOR; test: cell-based; assay type: cell-based; remark: listed apart in the source
mouse [4] = conditions: in vivo
C57BL/6J mice [5] = conditions: mouse, in vivo
C57BL/6J mice [6] = conditions: mouse, in vivo; remark: listed apart in the source
C57BL/6J mice [7] = conditions: mouse, in vivo; remark: listed apart in the source
mouse [8] = conditions: in vivo; remark: listed apart in the source
mouse [9] = conditions: in vivo; remark: listed apart in the source

T1 sequence (P35372 whole entry): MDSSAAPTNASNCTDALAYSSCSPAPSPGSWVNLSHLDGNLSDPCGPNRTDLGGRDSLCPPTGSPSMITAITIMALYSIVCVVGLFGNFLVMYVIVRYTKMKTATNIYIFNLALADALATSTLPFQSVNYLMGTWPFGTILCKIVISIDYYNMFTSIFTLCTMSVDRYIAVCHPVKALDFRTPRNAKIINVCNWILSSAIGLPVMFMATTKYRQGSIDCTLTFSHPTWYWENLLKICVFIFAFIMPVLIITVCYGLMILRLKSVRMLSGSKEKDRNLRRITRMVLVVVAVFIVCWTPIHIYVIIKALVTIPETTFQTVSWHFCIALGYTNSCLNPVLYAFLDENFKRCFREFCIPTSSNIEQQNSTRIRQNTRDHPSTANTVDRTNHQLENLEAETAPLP

SMILES: C[C@@H](NC(=O)[C@@H](N)Cc1ccc(O)cc1)C(=O)NCC(=O)N(C)[C@@H](Cc1ccccc1)C(=O)NCCO [DAMGO]
- β-arrestin-2 recruitment, maximum value (μOR [1]): 100%
- β-arrestin-2 recruitment, median value (μOR [1]): 100%
- β-arrestin-2 recruitment, minimum value (μOR [1]): 100%
- β-arrestin-1 recruitment, maximum value (μOR [2]): 100%
- β-arrestin-1 recruitment, median value (μOR [2]): 100%
- β-arrestin-1 recruitment, minimum value (μOR [2]): 100%

SMILES: COc1ccsc1CNCC[C@@]1(c2ccccn2)CCOC2(CCCC2)C1 [TRV130]
- Emax (μOR [3]; read-out: G0a Emax % ± SEM): 67 ± 5.3%
- Emax (μOR [3]; read-out: G0b Emax % ± SEM): 76 ± 4.4%
- Emax (μOR [3]; read-out: Gi1 Emax % ± SEM): 58 ± 3.8%
- Emax (μOR [3]; read-out: Gi2 Emax % ± SEM): 58 ± 4.2%
- Emax (μOR [3]; read-out: Gi3 Emax % ± SEM): 45 ± 3.3%
- Emax (μOR [3]; read-out: Gz Emax % ± SEM): 98 ± 2.2%
- β-arr2 Emax % ± SEM (μOR [1]): 26 ± 5.9%

SMILES: COc1ccc2c3c1O[C@H]1C(=O)CC[C@@]4(O)[C@@H](C2)N(C)CC[C@]314 [Oxycodone]
- Gz Emax % ± SEM (μOR [3]): full agonist
- Emax (μOR [3]; read-out: G0a Emax % ± SEM): 102 ± 5.2%
- Emax (μOR [3]; read-out: G0b Emax % ± SEM): 110 ± 3.4%
- Emax (μOR [3]; read-out: Gi2 Emax % ± SEM): 83 ± 5.7%
- Emax (μOR [3]; read-out: Gi3 Emax % ± SEM): 75 ± 3.8%
- Emax (μOR [3]; read-out: Gz Emax % ± SEM): 102 ± 4.9%
- β-arr2 Emax % ± SEM (μOR [1]): 80 ± 3.9%
- Emax (μOR [2]): 81 ± 7.9%

SMILES: CC(C)=CCN1CCC2(C)c3cc(O)ccc3CC1C2C (stereo not drawn) [Pentazocine]
- Gz Emax % ± SEM (μOR [3]): full agonist
- Emax (μOR [3]; read-out: G0a Emax % ± SEM): 89 ± 4%
- Emax (μOR [3]; read-out: G0b Emax % ± SEM): 89 ± 3.2%
- Emax (μOR [3]; read-out: Gi1 Emax % ± SEM): 75 ± 1.8%
- Emax (μOR [3]; read-out: Gi2 Emax % ± SEM): 78 ± 3.8%
- Emax (μOR [3]; read-out: Gi3 Emax % ± SEM): 73 ± 2.3%
- Emax (μOR [3]; read-out: Gz Emax % ± SEM): 103 ± 1.5%
- Emax (μOR [1]; read-out: β-arr2 Emax % ± SEM): 13 ± 4.04%
- Emax (μOR [2]): 7 ± 4.51%

SMILES: CN1CC[C@]23c4c5ccc(O)c4O[C@H]2[C@@H](O)C=C[C@H]3[C@H]1C5 [Morphine]
- Antinociception in writhing assay (mouse [4]): significant antinociception compared with vehicle or saline
- Number of writhes over 15 min, maximum (mouse [4]): 32
- Number of writhes over 15 min, median (mouse [4]): 0
- Number of writhes over 15 min, minimum (mouse [4]): 0
- Breath rates (C57BL/6J mice [5]): decrease
- Ambulations (locomotor effect) (C57BL/6J mice [6]): hyperlocomotion
- ED50 95% confidence interval (C57BL/6J mice [7]): 4.4 to 8.43 nmol
- Median antinociceptive dose (ED50) (C57BL/6J mice [7]): 6.6 nmol
- Antinociception in formalin assay (mouse [8]): significant antinociception compared with vehicle or saline
- Formalin assay response, maximum (mouse [8]): 95 s
- Formalin assay response, median (mouse [8]): 7 s
- Formalin assay response, minimum (mouse [8]): 1 s
- Post-conditioning (post-CPP), maximum (mouse [9]): 819 s
- Post-conditioning (post-CPP), median (mouse [9]): 154 s
- Post-conditioning (post-CPP), minimum (mouse [9]): -299 s
- Pre-conditioning (pre-CPP) difference in time on drug-paired side, minimum (mouse [9]): -542 s
- Pre-conditioning (pre-CPP), maximum (mouse [9]): 413 s
- Pre-conditioning (pre-CPP), median (mouse [9]): -23 s

SMILES: CC[C@@H]1CN2CC[C@@]3(O)C(=Nc4cccc(OC)c43)[C@@H]2C[C@@H]1/C(=C\OC)C(=O)OC [7-OH, 7-hydroxymitragynine]
- Respiratory effect (C57BL/6J mice [5]; sc): respiratory depression similar to that caused by morphine
- G0a Emax % ± SEM (μOR [3]): 65 ± 4.9%
- G0b Emax % ± SEM (μOR [3]): 56 ± 3.5%
- Gi1 Emax % ± SEM (μOR [3]): 31 ± 4.9%
- Gi2 Emax % ± SEM (μOR [3]): 53 ± 5.1%
- Gz Emax % ± SEM (μOR [3]): 73 ± 2.8%
- β-arrestin-2 recruitment, maximum value (μOR [1]): 25.2%
- β-arrestin-2 recruitment, median value (μOR [1]): −2.4%
- β-arrestin-2 recruitment, minimum value (μOR [1]): −13.1%
- β-arrestin-1 recruitment, maximum value (μOR [2]): 0.3%
- β-arrestin-1 recruitment, median value (μOR [2]): −1.4%
- β-arrestin-1 recruitment, minimum value (μOR [2]): −8.0%
